{"source": "patent US9012446B2", "about": "“Amino-oxazines and amino-dihydrothiazine compounds as beta-secretase modulators and methods of use” (Amgen Inc., priority 2010, dated 2015)", "key": {"[1]": {"target": "BACE (Homo sapiens, UniProt P56817)", "sequence (P56817 46-501, species assumed)": "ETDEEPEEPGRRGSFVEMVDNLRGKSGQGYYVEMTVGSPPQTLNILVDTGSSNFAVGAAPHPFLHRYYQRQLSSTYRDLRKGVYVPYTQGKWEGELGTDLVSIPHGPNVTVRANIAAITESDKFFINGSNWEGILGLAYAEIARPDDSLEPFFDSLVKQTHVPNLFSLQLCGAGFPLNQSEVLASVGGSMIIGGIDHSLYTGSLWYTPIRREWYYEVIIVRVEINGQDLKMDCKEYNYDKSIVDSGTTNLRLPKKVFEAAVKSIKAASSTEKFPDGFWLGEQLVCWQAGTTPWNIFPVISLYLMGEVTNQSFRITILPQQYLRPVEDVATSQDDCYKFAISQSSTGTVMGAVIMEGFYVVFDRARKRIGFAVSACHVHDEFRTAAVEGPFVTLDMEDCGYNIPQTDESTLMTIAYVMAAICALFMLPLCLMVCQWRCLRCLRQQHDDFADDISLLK", "assay": "In vitro enzymatic BACE FRET assay", "format": "biochemical", "settings": "average IC50, enzyme assay; read-out: BACE 1 FRET assay", "method_in_brief": "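BACE (0.2 nM) preincubated 1 h with serially diluted inhibitors in 0.05 M acetate pH 4.2, 10% DMSO, 100 uM genapol. FRET peptide substrate (50 nM) added, 1 h incubation, then stopped with Tris to neutral pH. Fluorescence from cleavage read at […].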"}, "[2]": {"test_system": "Abeta 40", "assay": "In vivo inhibition of beta-secretase: Abeta 40 reduction in CSF and brain of the rat", "settings": "10 mpk, after 4 hrs", "method_in_brief": "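Male Sprague Dawley rats (200 g) were given test compound by oral gavage in 2% HPMC, 1% Tween80, pH 2.2, while a vehicle-only group served as control. After sacrifice, brains were homogenized in 0.2% DEA/50 mM NaCl or 0.5% TritonX-100 in Tris-buffered saline and centrifuged at 355,000 g, 4° C. for 30 minutes. Abeta40 in CSF and brain supernatants was quantified by ECL sandwich ELISA (biotinylated-4G8 capture, Fab40 detection) as percent reduction versus vehicle.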"}, "[3]": {"test_system": "Aβ40", "assay": "In vitro BACE cell-based assay (Aβ40 sandwich ELISA, cells stably expressing APP)", "settings": "Homo sapiens, HEK293, average IC50; read-out: HEK cell assay", "method_in_brief": "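APP-stably-expressing cells, grown 24 h in DMEM/10% FBS, received 10-point compound doses starting at 100 μM or 10 μM (0.1% DMSO final). Secreted Aβ40 in supernatants measured by sandwich ELISA with time-resolved europium fluorescence; IC50 from percent inhibition versus concentration.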"}, "[4]": {"settings": "Abeta 40, rat CSF, read-out: % reduction of rat CSF levels at 10 pmk"}, "[5]": {"settings": "Abeta 40, rat brain, read-out: % reduction of rat brain levels at 10 mpk"}}, "note": "Where two headings read alike, the source gives them in different places."}
{"molecule": "Cc1cc(-c2cc3c(c(F)n2)Oc2ccc(-c4cccnc4F)cc2[C@@]32COCC(N)=N2)ccn1", "note": "[Example 248, (S)-1-fluoro-7-(2-fluoropyridin-3-yl)-3-(2-methylpyridin-4-yl)-2′,6′-dihydrospiro[chromeno[2,3-c]pyridine-5,3′-[1,4]oxazin]-5′-amine]", "values": [{"measurement": "IC50", "setting": "[1]", "result": 0.6, "unit": "nM"}, {"measurement": "inhibition in vivo at 10 mg/kg", "setting": "[2]; [4]", "result": 53, "unit": "%"}, {"measurement": "inhibition in vivo at 10 mg/kg", "setting": "[2]; [5]", "result": 39, "unit": "%"}, {"measurement": "IC50", "setting": "[3]", "result": 0.7, "unit": "nM"}]}
{"molecule": "NC1=N[C@@]2(COC1)c1cc(-c3cccnc3F)ccc1Oc1c2cc(C2=CCCOC2)nc1F", "note": "[Example 249, (S)-3-(5,6-dihydro-2H-pyran-3-yl)-1-fluoro-7-(2-fluoropyridin-3-yl)-2′,6′-dihydrospiro[chromeno[2,3-c]pyridine-5,3′-[1,4]oxazin]-5′-amine]", "values": [{"measurement": "IC50", "setting": "[1]", "result": 0.4, "unit": "nM"}, {"measurement": "inhibition in vivo at 10 mg/kg", "setting": "[2]; [4]", "result": 72, "unit": "%"}, {"measurement": "inhibition in vivo at 10 mg/kg", "setting": "[2]; [5]", "result": 59, "unit": "%"}, {"measurement": "IC50", "setting": "[3]", "result": 0.4, "unit": "nM"}]}
{"molecule": "CC(C)(C)COc1cc2c(c(F)n1)Oc1ccc(-c3cccnc3F)cc1[C@@]21COCC(N)=N1", "note": "[Example 250, (5S)-3-(2,2-dimethylpropoxy)-1-fluoro-7-(2-fluoro-3-pyridinyl)-6′H-Spiro[chromeno[2,3-c]pyridine-5,3′-[1,4]oxazin]-5′-amine]", "values": [{"measurement": "IC50", "setting": "[1]", "result": 0.6, "unit": "nM"}, {"measurement": "inhibition in vivo at 10 mg/kg", "setting": "[2]; [4]", "result": 72, "unit": "%"}, {"measurement": "inhibition in vivo at 10 mg/kg", "setting": "[2]; [5]", "result": 72, "unit": "%"}, {"measurement": "IC50", "setting": "[3]", "result": 2.8, "unit": "nM"}]}
{"molecule": "CC(C)(C)C#Cc1cnc2c(c1)[C@]1(CCOC(N)=N1)c1cc(-c3cccnc3F)ccc1O2", "note": "[Example 270, (S)-3-(3,3-dimethylbut-1-ynyl)-7-(2-fluoropyridin-3-yl)-5′,6′-dihydrospiro[chromeno[2,3-b]pyridine-5,4′-[1,3]oxazin]-2′-amine]", "values": [{"measurement": "IC50", "setting": "[1]", "result": 3.1, "unit": "nM"}, {"measurement": "inhibition in vivo at 10 mg/kg", "setting": "[2]; [4]", "result": 70, "unit": "%"}, {"measurement": "inhibition in vivo at 10 mg/kg", "setting": "[2]; [5]", "result": 52, "unit": "%"}, {"measurement": "IC50", "setting": "[3]", "result": 4.9, "unit": "nM"}]}
